According to publication PMC9233935 (Journal of medicinal chemistry, 2022):
≈ marks a conversion by molar mass, not a printed value.

What was measured:
[1] = test system: M. tuberculosis H37Rv; assay: microbe, parasite or virus in culture; type: cell-based, Mycobacterium tuberculosis
[2] = test system: S. aureus ATTC 25923
[3] = target: Mtb gyrase (Mycobacterium tuberculosis, UniProt P9WG45+P9WG47); assay: biochemical; type: biochemical
[4] = test system: gyrA hypomorph (gyrA-FDAS-TetON-1); type: cell-based; conditions: fold-hypersensitivity
[5] = test system: S. aureus ATTC 25923; assay: microbe, parasite or virus in culture; conditions: Staphylococcus aureus, ATTC25923, read-out: Sau MIC

Chain of Mtb gyrase (P9WG45 whole entry, looked up): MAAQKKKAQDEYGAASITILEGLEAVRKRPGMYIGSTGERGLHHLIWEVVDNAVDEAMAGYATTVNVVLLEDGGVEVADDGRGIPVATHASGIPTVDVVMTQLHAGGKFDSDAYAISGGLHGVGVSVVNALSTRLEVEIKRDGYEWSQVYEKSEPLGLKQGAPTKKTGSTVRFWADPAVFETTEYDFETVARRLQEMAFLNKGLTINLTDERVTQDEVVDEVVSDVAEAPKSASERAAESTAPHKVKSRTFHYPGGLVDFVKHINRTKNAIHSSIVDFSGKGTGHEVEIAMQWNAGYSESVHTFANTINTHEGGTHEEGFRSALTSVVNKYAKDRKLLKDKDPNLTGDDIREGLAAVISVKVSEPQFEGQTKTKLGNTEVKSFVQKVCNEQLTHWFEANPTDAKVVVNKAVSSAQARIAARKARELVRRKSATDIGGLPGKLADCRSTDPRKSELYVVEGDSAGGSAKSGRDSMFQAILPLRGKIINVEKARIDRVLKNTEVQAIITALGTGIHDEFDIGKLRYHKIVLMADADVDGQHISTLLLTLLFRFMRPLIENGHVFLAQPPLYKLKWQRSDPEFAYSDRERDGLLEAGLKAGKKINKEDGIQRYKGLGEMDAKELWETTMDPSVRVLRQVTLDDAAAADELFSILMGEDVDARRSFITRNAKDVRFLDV
Chain of Mtb gyrase (P9WG47 whole entry, looked up): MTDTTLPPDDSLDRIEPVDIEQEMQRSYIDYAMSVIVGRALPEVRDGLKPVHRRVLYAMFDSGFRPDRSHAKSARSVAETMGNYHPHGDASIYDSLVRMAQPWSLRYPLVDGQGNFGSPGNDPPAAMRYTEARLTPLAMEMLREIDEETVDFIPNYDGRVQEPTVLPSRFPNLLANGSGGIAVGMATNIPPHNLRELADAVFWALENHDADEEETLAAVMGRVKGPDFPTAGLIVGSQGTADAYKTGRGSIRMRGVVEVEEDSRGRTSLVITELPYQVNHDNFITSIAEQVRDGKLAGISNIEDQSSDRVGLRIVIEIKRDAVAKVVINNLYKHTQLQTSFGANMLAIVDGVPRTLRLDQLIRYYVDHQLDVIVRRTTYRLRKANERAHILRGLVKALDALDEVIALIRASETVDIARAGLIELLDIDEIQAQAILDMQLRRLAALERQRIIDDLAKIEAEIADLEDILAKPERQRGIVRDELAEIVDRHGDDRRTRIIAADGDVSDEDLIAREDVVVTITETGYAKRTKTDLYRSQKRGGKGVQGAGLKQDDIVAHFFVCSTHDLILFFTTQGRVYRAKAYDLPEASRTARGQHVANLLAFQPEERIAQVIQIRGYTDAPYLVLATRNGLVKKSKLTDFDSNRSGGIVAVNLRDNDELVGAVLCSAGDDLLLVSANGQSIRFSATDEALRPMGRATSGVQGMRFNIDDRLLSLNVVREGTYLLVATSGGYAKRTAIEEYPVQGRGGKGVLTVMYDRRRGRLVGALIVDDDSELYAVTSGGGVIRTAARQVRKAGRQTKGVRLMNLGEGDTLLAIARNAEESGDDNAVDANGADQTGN

Compound | Ratio (WT/hypomorph) MIC [4] | Ratio (WT/hypomorph) MIC50 [4] | MIC [5] [µM] | further results
(2R,4S,4aS)-11-fluoro-2,4-dimethyl-8-((S)-3-(methylamino)pyrrolidin-1-yl)-1,2,4,4a-tetrahydro-2’H-spiro[isoxazolo[5’,4’:4,5]benzo[1,2-b][1,4]oxazino[4,3-d][1,4]oxazine-5,5’-pyrimidine]-2’,4’,6’(1’H,3’H)-trione [Compound 17] | – | – | – | Mtb MIC [1]: 63 µM; fold higher Mtb MIC compared to 8 [1]: 9 to16 fold; Sau MIC [2]: 125 µM
C[C@@H]1CN2c3c(cc4c(N5C[C@@H](O)[C@H](O)C5)noc4c3F)CC3(C(=O)NC(=O)NC3=O)[C@H]2[C@H](C)O1 [Compound 10, (2R,4S,4aS)-8-((3R,4R)-3,4-dihydroxypyrrolidin-1-yl)-11-fluoro-2,4-dimethyl-1,2,4,4a-tetrahydro-2’H,6H-spiro[isoxazolo[4,5-g][1,4]oxazino[4,3-a]quinoline-5,5’-pyrimidine]-2’,4’,6’(1’H,3’H)-trione] | 2.1 | 2.9 | – | Mtb gyrase IC50 fold higher (less potent) than moxifloxacin [3]: ≤ 2 fold
C[C@@H]1CN2c3c(cc4c(N5C[C@H](O)[C@@H](O)C5)noc4c3F)CC3(C(=O)NC(=O)NC3=O)[C@H]2[C@H](C)O1 [Compound 11, (2R,4S,4aS)-8-((3S,4S)-3,4-dihydroxypyrrolidin-1-yl)-11-fluoro-2,4-dimethyl-1,2,4,4a-tetrahydro-2’H,6H-spiro[isoxazolo[4,5-g][1,4]oxazino[4,3-a]quinoline-5,5’-pyrimidine]-2’,4’,6’(1’H,3’H)-trione] | – | – | > 125 | –
C[C@@H]1CN2c3c(cc4c(N5C[C@@H](O)[C@@H](O)C5)noc4c3F)CC3(C(=O)NC(=O)NC3=O)[C@H]2[C@H](C)O1 [Compound 12, (2R,4S,4aS)-8-((3R,4S)-3,4-dihydroxypyrrolidin-1-yl)-11-fluoro-2,4-dimethyl-1,2,4,4a-tetrahydro-2’H,6H-spiro[isoxazolo[4,5-g][1,4]oxazino[4,3-a]quinoline-5,5’-pyrimidine]-2’,4’,6’(1’H,3’H)-trione] | – | – | > 125 | –
C[C@@H]1CN2c3c(cc4c(N5CC[C@H](O)C5)noc4c3F)CC3(C(=O)NC(=O)NC3=O)[C@H]2[C@H](C)N1C#N [Compound 40, (2R,4S,4aS)-11-fluoro-8-((S)-3-hydroxypyrrolidin-1-yl)-2,4-dimethyl-2’,4’,6’-trioxo-1,1’,2,3’,4,4a,4’,6’-octahydro-2’H,3H,6H-spiro[isoxazolo[4,5-g]pyrazino[1,2-a]quinoline-5,5’-pyrimidine]-3-carbonitrile] | 2.0 | 3.1 | > 125 | IC50 [3]: 19 µM
C[C@@H]1CN2c3c(cc4c(N5CC[C@@H](O)C5)noc4c3F)CC3(C(=O)NC(=O)NC3=O)[C@H]2[C@H](C)O1 [Compound 9, (2R,4S,4aS)-11-fluoro-8-((R)-3-hydroxypyrrolidin-1-yl)-2,4-dimethyl-1,2,4,4a-tetrahydro-2’H,6H-spiro[isoxazolo[4,5-g][1,4]oxazino[4,3-a]quinoline-5,5’-pyrimidine]-2’,4’,6’(1’H,3’H)-trione] | – | – | 64 (≈ 30.3 µg/mL) | –
C[C@@H]1CN2c3c(cc4c(N5CC[C@H](O)C5)noc4c3F)CC3(C(=O)NC(=O)NC3=O)[C@H]2[C@H](C)O1 [Compound 8, (2R,4S,4aS)-11-fluoro-8-((S)-3-hydroxypyrrolidin-1-yl)-2,4-dimethyl-1,2,4,4a-tetrahydro-2’H,6H-spiro[isoxazolo[4,5-g][1,4]oxazino[4,3-a]quinoline-5,5’-pyrimidine]-2’,4’,6’(1’H,3’H)-trione] | 2.5 | 3.6 | – | Mtb gyrase IC50 fold higher (less potent) than moxifloxacin [3]: ≤ 2 fold; fold less active against S. aureus than zoliflodacin [2]: > 200 fold
